# Assay results taken from article PMC10460728 (Journal of Pharmacokinetics and Pharmacodynamics, 2023).
# Experiments:
# CYP2B6 = CYP2B6 mRNA induction in cultured human hepatocytes; conditions: 750 µmol/L
# P-gp [1] = experiment: P-gp mRNA induction in cultured human hepatocytes; format: cell-based; conditions: 750 µmol/L
# intestinal P-gp = conditions: multiple-dose 600 mg rifampicin, Western blot; cited from earlier work
# P-gp [2] = conditions: cited from earlier work
# CYP3A and P-gp = test system: CYP3A and P-gp; set-up: method as in PMID 33030266; conditions: assumed in model development, verified with clinical DDI studies; cited from earlier work
# P-gp and CYP3A = conditions: apixaban; cited from earlier work
# [3] = multiple 160 mg doses of enzalutamide, mean (SD)
# [4] = multiple oral 160 mg enzalutamide
structure (smiles),measurement,setting,value
"CCC1(c2ccccc2)C(=O)NC(=O)NC1=O [Phenobarbital, phenobarbital, reference compound]",Fold increase CYP2B6 mRNA,CYP2B6,6.90 ± 3.66 fold
same,Fold increase P-gp mRNA,P-gp [1],2.61 ± 0.59 fold
"CO[C@H]1/C=C/O[C@@]2(C)Oc3c(C)c(O)c4c(O)c(c(/C=N/N5CCN(C)CC5)c(O)c4c3C2=O)NC(=O)/C(C)=C\C=C\[C@H](C)[C@H](O)[C@@H](C)[C@@H](O)[C@@H](C)[C@H](OC(C)=O)[C@@H]1C [Rifampicin, rifampicin]",Increase in intestinal P-gp expression,intestinal P-gp,3.5 fold
"C[C@H]1O[C@@H](O[C@H]2[C@@H](O)C[C@H](O[C@H]3[C@@H](O)C[C@H](O[C@H]4CC[C@@]5(C)[C@H](CC[C@@H]6[C@@H]5C[C@@H](O)[C@]5(C)[C@@H](C7=CC(=O)OC7)CC[C@]65O)C4)O[C@@H]3C)O[C@@H]2C)C[C@H](O)[C@@H]1O [Digoxin, digoxin]","AUC ratio, observed",P-gp [2]; geometric mean ratio (90% CI),1.29 (1.21–1.38)
same,"Cmax ratio, observed",P-gp [2]; geometric mean ratio (90% CI),1.17 (1.06–1.29)
same,"AUC without enzalutamide, observed",P-gp [2]; mean (SD),22.1 (4.10) ng·h/mL
same,"Cmax without enzalutamide, observed",P-gp [2]; mean (SD),1.45 (0.314) ng/mL
same,"AUC with enzalutamide, observed",P-gp [2]; [3],28.7 (5.79) ng·h/mL
same,"Cmax with enzalutamide, observed",P-gp [2]; [3],1.69 (0.384) ng/mL
same,Increase in digoxin AUC by enzalutamide,P-gp [2]; [4],29%
same,Increase in digoxin Cmax by enzalutamide,P-gp [2]; [4],17%
"COc1ccc(-n2nc(C(N)=O)c3c2C(=O)N(c2ccc(N4CCCCC4=O)cc2)CC3)cc1 [Apixaban, apixaban]",Contribution of CYP3A to hepatic metabolism,CYP3A and P-gp,42%
same,Decrease in AUC by rifampicin,P-gp and CYP3A,54%
